From ChEMBL document CHEMBL4665904, “Novel APOL1 Inhibitors for Treating Kidney Diseases” (ACS Med Chem Lett, 2020)

Key:
Apolipoprotein L1 = molecular target: T1, Apolipoprotein L1 (Homo sapiens, UniProt O14791); experiment: Inhibition of APOL1 (unknown origin) in HEK293 cells assessed as thallium influx incubated for 30 mins by FLIPR based thallium influx assay; assay type: cell-based
T1 sequence (O14791 whole entry): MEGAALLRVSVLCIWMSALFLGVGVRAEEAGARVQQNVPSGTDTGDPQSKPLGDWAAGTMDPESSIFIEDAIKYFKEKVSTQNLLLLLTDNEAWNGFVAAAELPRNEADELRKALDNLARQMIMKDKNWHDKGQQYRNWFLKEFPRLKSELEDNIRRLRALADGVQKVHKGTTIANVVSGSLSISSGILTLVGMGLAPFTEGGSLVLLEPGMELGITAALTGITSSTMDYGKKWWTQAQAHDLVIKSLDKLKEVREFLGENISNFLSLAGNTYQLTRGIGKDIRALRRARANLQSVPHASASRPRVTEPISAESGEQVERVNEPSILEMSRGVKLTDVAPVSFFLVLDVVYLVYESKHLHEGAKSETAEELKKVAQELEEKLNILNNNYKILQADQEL

Trypanosoma brucei = experiment: Trypanocidal activity against bloodstream forms of Trypanosoma brucei using recombinant APOL1 assessed as cell viability incubated for 16 hrs by cell lysis based alamar blue assay; assay type: functional, organism-based

In the case of `O=C(CCc1c(-c2ccc(F)cc2)[nH]c2c(F)cc(F)cc12)N[C@@H]1C(=O)NC[C@@H]1O`, the IC50 (Apolipoprotein L1) is reported as under 0.25 µM and the IC50 (Trypanosoma brucei) is reported as under 0.25 µM.

For `O=C(CCc1c(-c2ccccc2)[nH]c2c(F)cccc12)N[C@@H]1C(=O)NC[C@H]1O`, the IC50 (Apolipoprotein L1) was under 0.25 µM and the IC50 (Trypanosoma brucei) was under 0.25 µM.

For `N#Cc1cc(F)cc2c(CCC(=O)N[C@@H]3C(=O)NC[C@H]3O)c(-c3ccc(F)cc3)[nH]c12`, the IC50 (Apolipoprotein L1) was under 0.25 µM and the IC50 (Trypanosoma brucei) was under 0.25 µM.

`N#Cc1ccc(-c2[nH]c3c(F)cc(F)cc3c2CCC(=O)N[C@H]2CCNC2=O)cc1` was tested, and the IC50 (Apolipoprotein L1) was under 0.25 µM and the IC50 (Trypanosoma brucei) was under 0.25 µM.

Work on `O=C(CCc1c(-c2ccccc2)[nH]c2cc(F)c(F)cc12)N[C@@H]1C(=O)NC[C@H]1O` yielded an IC50 (Apolipoprotein L1) of under 0.25 µM and an IC50 (Trypanosoma brucei) of under 0.25 µM.

`COc1ccc(-c2[nH]c3ccccc3c2CCC(=O)N[C@@H]2C(=O)NC[C@H]2O)cc1` was tested, and the IC50 (Apolipoprotein L1) was under 0.25 µM and the IC50 (Trypanosoma brucei) was under 0.25 µM.
